Values quoted from earlier work as cited in patent US6444224B1 (Interag, priority 1997, dated 2002).

Legend:
pigs [1] = settings: oral, once daily at feeding
pigs [2] = settings: 15, 25, 50 mg per day (IM) for 14 days

Structure (SMILES) | Effectiveness to control oestrus and ovulation (pigs [1]) | Control of the oestrus cycle (pigs [2]) | Fertility (pigs [2])
C=CC[C@]1(O)CC[C@H]2[C@@H]3CCC4=CC(=O)CCC4=C3C=C[C@@]21C [altrenogest] | effective | – | –
C=CC(C)NC(=S)NNC(=S)NC (stereo not shown) [methallibure] | effective | – | –
CC(=O)[C@H]1CC[C@H]2[C@@H]3CCC4=CC(=O)CC[C@]4(C)[C@H]3CC[C@]12C [progesterone] | – | results in control of the oestrus cycle | poor fertility results
